In PubChem BioAssay (NCI):
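Step 1: Grow cells in 96-well plates. Step 2: Expose to compound for 48 hours at 5 concentrations. Step 3: Interpolate endpoints linearly; if unreached, use highest concentration. GI50: concentration for 50% inhibition of growth. TGI: concentration producing complete growth inhibition.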

Legend:
Assay in all cases: NCI anticancer screen, dose series, 48 h
NCI-H23 lung = system: NCI-H23 lung
HCT-15 colon = system: HCT-15 colon
MDA-MB-435 = system: MDA-MB-435
T-47D breast = system: T-47D breast
LOX IMVI melanoma = system: LOX IMVI melanoma
SK-MEL-5 melanoma = system: SK-MEL-5 melanoma
EKVX NSCLC = system: EKVX NSCLC
HCT-116 colon = system: HCT-116 colon
SK-MEL-2 melanoma = system: SK-MEL-2 melanoma
SW-620 colon = system: SW-620 colon
RPMI-8226 leukemia = system: RPMI-8226 leukemia
NCI/ADR-RES ovarian = system: NCI/ADR-RES ovarian
786-0 renal = system: 786-0 renal
OVCAR-8 ovarian = system: OVCAR-8 ovarian
SK-MEL-28 melanoma = system: SK-MEL-28 melanoma
MOLT-4 leukemia = system: MOLT-4 leukemia
RXF 393 renal = system: RXF 393 renal
SR leukemia = system: SR leukemia
MALME-3M melanoma = system: MALME-3M melanoma
CAKI-1 renal = system: CAKI-1 renal
U251 CNS = system: U251 CNS
HT29 colon = system: HT29 colon
IGROV1 ovarian = system: IGROV1 ovarian
SF-268 CNS = system: SF-268 CNS
HS 578T breast = system: HS 578T breast
M14 melanoma = system: M14 melanoma
HL-60(TB) leukemia = system: HL-60(TB) leukemia
TK-10 renal = system: TK-10 renal
OVCAR-4 ovarian = system: OVCAR-4 ovarian
PC-3 prostate = system: PC-3 prostate
CCRF-CEM leukemia = system: CCRF-CEM leukemia
MCF7 breast = system: MCF7 breast
SK-OV-3 ovarian = system: SK-OV-3 ovarian
NCI-H226 lung = system: NCI-H226 lung
NCI-H522 lung = system: NCI-H522 lung
OVCAR-3 ovarian = system: OVCAR-3 ovarian
MDA-MB-231 breast = system: MDA-MB-231 breast
DU-145 prostate = system: DU-145 prostate
BT-549 breast = system: BT-549 breast
UO-31 renal = system: UO-31 renal
NCI-H460 lung = system: NCI-H460 lung
SF-295 CNS = system: SF-295 CNS
A549 NSCLC = system: A549 NSCLC
HCC-2998 colon = system: HCC-2998 colon
COLO 205 colon = system: COLO 205 colon
UACC-257 melanoma = system: UACC-257 melanoma
ACHN renal = system: ACHN renal
KM12 colon = system: KM12 colon
SNB-75 CNS = system: SNB-75 CNS
HOP-62 NSCLC = system: HOP-62 NSCLC
SN12C renal = system: SN12C renal
SF-539 CNS = system: SF-539 CNS
A498 renal = system: A498 renal
UACC-62 melanoma = system: UACC-62 melanoma
OVCAR-5 ovarian = system: OVCAR-5 ovarian
K-562 leukemia = system: K-562 leukemia
HOP-92 NSCLC = system: HOP-92 NSCLC
SNB-19 CNS = system: SNB-19 CNS
MDA-N = system: MDA-N

CCN(Cc1ccc(Cl)cc1)c1ccc(CO)c(Cl)c1 gave a GI50 (NCI-H23 lung) of 3.23 µM, a TGI (NCI-H23 lung) of 22.8 µM and a GI50 (HCT-15 colon) of 3.52 µM. The TGI (HCT-15 colon) was 19.8 µM, the GI50 (MDA-MB-435) was 11 µM and the TGI (MDA-MB-435) was 24.5 µM. It also gave a GI50 (T-47D breast) of 0.196 µM, a TGI (T-47D breast) of 1.25 µM and a GI50 (LOX IMVI melanoma) of 3.36 µM. For the same molecule, the TGI (LOX IMVI melanoma) was 15.3 µM, the GI50 (SK-MEL-5 melanoma) was 2.58 µM and the TGI (SK-MEL-5 melanoma) was 13.2 µM. The GI50 (EKVX NSCLC) was 12.4 µM, the TGI (EKVX NSCLC) was 29.1 µM and the GI50 (HCT-116 colon) was 0.129 µM. It also gave a TGI (HCT-116 colon) of 3.77 µM, a GI50 (SK-MEL-2 melanoma) of 1.75 µM and a TGI (SK-MEL-2 melanoma) of 10.6 µM. It also gave a GI50 (SW-620 colon) of 0.824 µM, a TGI (SW-620 colon) of 16.4 µM and a GI50 (RPMI-8226 leukemia) of 3.27 µM. It also gave a TGI (RPMI-8226 leukemia) of 32.9 µM, a GI50 (NCI/ADR-RES ovarian) of 5.59 µM and a TGI (NCI/ADR-RES ovarian) of 20.9 µM. For the same molecule, the GI50 (786-0 renal) was 2.19 µM, the TGI (786-0 renal) was 13.3 µM and the GI50 (OVCAR-8 ovarian) was 3.62 µM. For the same molecule, the TGI (OVCAR-8 ovarian) was 21 µM, the GI50 (SK-MEL-28 melanoma) was 11.2 µM and the TGI (SK-MEL-28 melanoma) was 24.2 µM. For the same molecule, the GI50 (MOLT-4 leukemia) was 13.5 µM, the TGI (MOLT-4 leukemia) was 43.4 µM and the GI50 (RXF 393 renal) was 2.07 µM. The TGI (RXF 393 renal) was 13.3 µM, the GI50 (SR leukemia) was 17.7 µM and the TGI (SR leukemia) was 51.5 µM. The GI50 (MALME-3M melanoma) was 12.8 µM, the TGI (MALME-3M melanoma) was 28.5 µM and the GI50 (CAKI-1 renal) was 0.563 µM. For the same molecule, the TGI (CAKI-1 renal) was 7.45 µM, the GI50 (U251 CNS) was 0.863 µM and the TGI (U251 CNS) was 13 µM. It also gave a GI50 (HT29 colon) of 3.12 µM, a TGI (HT29 colon) of 13.5 µM and a GI50 (IGROV1 ovarian) of 0.0867 µM. For the same molecule, the TGI (IGROV1 ovarian) was 0.641 µM, the GI50 (SF-268 CNS) was 13.5 µM and the TGI (SF-268 CNS) was 29.6 µM. For the same molecule, the GI50 (HS 578T breast) was 6.09 µM, the TGI (HS 578T breast) was 31.5 µM and the GI50 (M14 melanoma) was 4.43 µM. It also gave a TGI (M14 melanoma) of 20.2 µM, a GI50 (HL-60(TB) leukemia) of 3.17 µM and a TGI (HL-60(TB) leukemia) of 20.8 µM. For the same molecule, the GI50 (TK-10 renal) was 0.0786 µM, the TGI (TK-10 renal) was 0.379 µM and the GI50 (OVCAR-4 ovarian) was 0.543 µM. It also gave a TGI (OVCAR-4 ovarian) of 11.3 µM, a GI50 (PC-3 prostate) of 11.5 µM and a TGI (PC-3 prostate) of 27.7 µM. It also gave a GI50 (CCRF-CEM leukemia) of 9.96 µM, a TGI (CCRF-CEM leukemia) of 45.6 µM and a GI50 (MCF7 breast) of 0.292 µM. The TGI (MCF7 breast) was 6.43 µM, the GI50 (SK-OV-3 ovarian) was 2.6 µM and the TGI (SK-OV-3 ovarian) was 12.9 µM. It also gave a GI50 (NCI-H226 lung) of 0.063 µM, a TGI (NCI-H226 lung) of 0.198 µM and a GI50 (NCI-H522 lung) of 7.55 µM. For the same molecule, the TGI (NCI-H522 lung) was 22.6 µM, the GI50 (OVCAR-3 ovarian) was 1.15 µM and the TGI (OVCAR-3 ovarian) was 5.75 µM. For the same molecule, the GI50 (MDA-MB-231 breast) was 4.95 µM, the TGI (MDA-MB-231 breast) was 20.3 µM and the GI50 (DU-145 prostate) was 7.89 µM. It also gave a TGI (DU-145 prostate) of 22.7 µM, a GI50 (BT-549 breast) of 5.02 µM and a TGI (BT-549 breast) of 19.4 µM. The GI50 (UO-31 renal) was 2.18 µM, the TGI (UO-31 renal) was 13.5 µM and the GI50 (NCI-H460 lung) was 0.348 µM. For the same molecule, the TGI (NCI-H460 lung) was 10.9 µM, the GI50 (SF-295 CNS) was 0.997 µM and the TGI (SF-295 CNS) was 12.1 µM. It also gave a GI50 (A549 NSCLC) of 1.35 µM, a TGI (A549 NSCLC) of 14.3 µM and a GI50 (HCC-2998 colon) of 7.7 µM. It also gave a TGI (HCC-2998 colon) of 21.9 µM, a GI50 (COLO 205 colon) of 2.2 µM and a TGI (COLO 205 colon) of 8.57 µM. For the same molecule, the GI50 (UACC-257 melanoma) was 0.145 µM, the TGI (UACC-257 melanoma) was 0.512 µM and the GI50 (ACHN renal) was 4.64 µM. The TGI (ACHN renal) was 19.6 µM, the GI50 (KM12 colon) was 11.8 µM and the TGI (KM12 colon) was 25.6 µM. The GI50 (SNB-75 CNS) was 3.4 µM, the TGI (SNB-75 CNS) was 17.6 µM and the GI50 (HOP-62 NSCLC) was 1.24 µM. It also gave a TGI (HOP-62 NSCLC) of 13.9 µM, a GI50 (SN12C renal) of 4.35 µM and a TGI (SN12C renal) of 19.3 µM. The GI50 (SF-539 CNS) was 11.9 µM, the TGI (SF-539 CNS) was 26.7 µM and the GI50 (A498 renal) was 0.0311 µM. The TGI (A498 renal) was 0.153 µM, the GI50 (UACC-62 melanoma) was 0.0929 µM and the TGI (UACC-62 melanoma) was 0.719 µM. It also gave a GI50 (OVCAR-5 ovarian) of 0.258 µM, a TGI (OVCAR-5 ovarian) of 2.04 µM and a GI50 (K-562 leukemia) of 1.87 µM. For the same molecule, the TGI (K-562 leukemia) was greater than 45.5 µM, the GI50 (HOP-92 NSCLC) was 1.52 µM and the TGI (HOP-92 NSCLC) was 11.1 µM. For the same molecule, the GI50 (SNB-19 CNS) was 13.1 µM and the TGI (SNB-19 CNS) was 28.9 µM.
For Cc1ccc(S(=O)(=O)N2CCC(=O)c3cc(Br)ccc32)cc1, the TGI (NCI-H23 lung) was greater than 93.9 µM, the TGI (HCT-15 colon) was greater than 100 µM and the TGI (MDA-MB-435) was 4.98 µM. For the same molecule, the TGI (T-47D breast) was greater than 100 µM, the TGI (LOX IMVI melanoma) was greater than 64.6 µM and the TGI (SK-MEL-5 melanoma) was 21.7 µM. For the same molecule, the TGI (EKVX NSCLC) was 96.3 µM, the TGI (HCT-116 colon) was greater than 100 µM and the TGI (SK-MEL-2 melanoma) was 36.3 µM. It also gave a TGI (SW-620 colon) greater than 100 µM, a TGI (RPMI-8226 leukemia) of 76.4 µM and a TGI (NCI/ADR-RES ovarian) of 58.9 µM. It also gave a TGI (786-0 renal) greater than 67.2 µM, a TGI (OVCAR-8 ovarian) greater than 100 µM and a TGI (SK-MEL-28 melanoma) greater than 100 µM. For the same molecule, the TGI (MOLT-4 leukemia) was greater than 26.6 µM, the TGI (RXF 393 renal) was 53.6 µM and the TGI (SR leukemia) was greater than 100 µM. The TGI (MALME-3M melanoma) was greater than 100 µM, the TGI (CAKI-1 renal) was greater than 100 µM and the TGI (U251 CNS) was greater than 35 µM. For the same molecule, the TGI (HT29 colon) was greater than 100 µM, the TGI (IGROV1 ovarian) was greater than 100 µM and the TGI (SF-268 CNS) was greater than 94.8 µM. The TGI (M14 melanoma) was greater than 67 µM, the TGI (TK-10 renal) was 54.4 µM and the TGI (OVCAR-4 ovarian) was greater than 73.9 µM. For the same molecule, the TGI (PC-3 prostate) was 75.4 µM, the TGI (MCF7 breast) was greater than 49.1 µM and the TGI (SK-OV-3 ovarian) was 63.2 µM. For the same molecule, the TGI (NCI-H226 lung) was greater than 100 µM, the TGI (NCI-H522 lung) was greater than 55.6 µM and the TGI (OVCAR-3 ovarian) was 61 µM. It also gave a TGI (MDA-MB-231 breast) greater than 54.5 µM, a TGI (DU-145 prostate) greater than 100 µM and a TGI (BT-549 breast) greater than 88.9 µM. For the same molecule, the TGI (UO-31 renal) was greater than 100 µM, the TGI (NCI-H460 lung) was greater than 55.4 µM and the TGI (SF-295 CNS) was 55.7 µM. The TGI (A549 NSCLC) was 32.1 µM, the TGI (HCC-2998 colon) was greater than 54.1 µM and the TGI (COLO 205 colon) was 31.3 µM. It also gave a TGI (UACC-257 melanoma) of 46.6 µM, a TGI (ACHN renal) greater than 100 µM and a TGI (KM12 colon) greater than 26.1 µM. For the same molecule, the TGI (MDA-N) was 13.3 µM, the TGI (SNB-75 CNS) was 59.6 µM and the TGI (HOP-62 NSCLC) was 59.7 µM. It also gave a TGI (SN12C renal) greater than 100 µM, a TGI (SF-539 CNS) of 25.3 µM and a TGI (A498 renal) of 30.1 µM. It also gave a TGI (UACC-62 melanoma) of 18.3 µM, a TGI (OVCAR-5 ovarian) greater than 100 µM and a TGI (K-562 leukemia) greater than 30.9 µM. The TGI (HOP-92 NSCLC) was 98.9 µM and the TGI (SNB-19 CNS) was 99.4 µM.
